Test results reported in ChEMBL document CHEMBL4024727, “Synthesis and antimycobacterial screening of new thiazolyl-oxazole derivatives” (Eur J Med Chem, 2017).

Key:
Assay type in all cases: functional
[1] = test system: Mycobacterium tuberculosis; assay: Growth inhibition of Mycobacterium bovis BCG ATCC 35743 at 10 ug/ml by nitrate reductase based two-fold dilution assay relative to control; conditions: BCG str. ATCC 35743, read-out: GI
Bacillus subtilis [2] = assay: Antibacterial activity against Bacillus subtilis NCIM 2162 measured after 12 hrs; conditions: NCIM 2162, 12 h
Escherichia coli [3] = assay: Growth inhibition of Escherichia coli NCIM 2576 at 10 ug/ml measured after 8 hrs relative to control; conditions: NCIM 2576, 8 h, read-out: GI
Bacillus subtilis [4] = assay: Growth inhibition of Bacillus subtilis NCIM 2162 at 1 ug/ml measured after 12 hrs relative to control; conditions: NCIM 2162, 12 h, read-out: GI
Escherichia coli [5] = assay: Antibacterial activity against Escherichia coli NCIM 2576 measured after 8 hrs; conditions: NCIM 2576, 8 h
[6] = test system: Mycobacterium tuberculosis; assay: Growth inhibition of Mycobacterium tuberculosis H37Ra ATCC 25177 at 3 ug/ml by XTT dye based two-fold dilution method relative to control; conditions: read-out: GI
Escherichia coli [7] = assay: Growth inhibition of Escherichia coli NCIM 2576 at 1 ug/ml measured after 8 hrs relative to control; conditions: NCIM 2576, 8 h, read-out: GI
Bacillus subtilis [8] = assay: Growth inhibition of Bacillus subtilis NCIM 2162 at 30 ug/ml measured after 12 hrs relative to control; conditions: NCIM 2162, 12 h, read-out: GI
[9] = test system: Mycobacterium tuberculosis; assay: Growth inhibition of Mycobacterium bovis BCG ATCC 35743 at 1 ug/ml by nitrate reductase based two-fold dilution assay relative to control; conditions: BCG str. ATCC 35743, read-out: GI
Pseudomonas fluorescens [10] = assay: Growth inhibition of Pseudomonas fluorescens NCIM 2059 at 10 ug/ml measured after 8 hrs relative to control; conditions: NCIM 2059, 8 h, read-out: GI
Pseudomonas fluorescens [11] = assay: Antibacterial activity against Pseudomonas fluorescens NCIM 2059 measured after 8 hrs; conditions: NCIM 2059, 8 h
Staphylococcus aureus [12] = assay: Growth inhibition of Staphylococcus aureus NCIM 2602 at 1 ug/ml measured after 12 hrs relative to control; conditions: NCIM 2602, 12 h, read-out: GI
[13] = test system: Mycobacterium tuberculosis; assay: Growth inhibition of Mycobacterium tuberculosis H37Ra ATCC 25177 at 10 ug/ml by XTT dye based two-fold dilution method relative to control; conditions: read-out: GI
Staphylococcus aureus [14] = assay: Growth inhibition of Staphylococcus aureus NCIM 2602 at 30 ug/ml measured after 12 hrs relative to control; conditions: NCIM 2602, 12 h, read-out: GI
[15] = test system: Mycobacterium tuberculosis; assay: Antitubercular activity against Mycobacterium tuberculosis H37Ra ATCC 25177 dormant stage by XTT dye based two-fold dilution method
Escherichia coli [16] = assay: Growth inhibition of Escherichia coli NCIM 2576 at 30 ug/ml measured after 8 hrs relative to control; conditions: NCIM 2576, 8 h, read-out: GI
Staphylococcus aureus [17] = assay: Antibacterial activity against Staphylococcus aureus NCIM 2602 measured after 12 hrs; conditions: NCIM 2602, 12 h
[18] = test system: Mycobacterium tuberculosis; assay: Growth inhibition of Mycobacterium tuberculosis H37Ra ATCC 25177 at 30 ug/ml by XTT dye based two-fold dilution method relative to control; conditions: read-out: GI
Staphylococcus aureus [19] = assay: Growth inhibition of Staphylococcus aureus NCIM 2602 at 10 ug/ml measured after 12 hrs relative to control; conditions: NCIM 2602, 12 h, read-out: GI
[20] = test system: Mycobacterium tuberculosis; assay: Growth inhibition of Mycobacterium bovis BCG ATCC 35743 at 30 ug/ml by nitrate reductase based two-fold dilution assay relative to control; conditions: BCG str. ATCC 35743, read-out: GI
Pseudomonas fluorescens [21] = assay: Growth inhibition of Pseudomonas fluorescens NCIM 2059 at 1 ug/ml measured after 8 hrs relative to control; conditions: NCIM 2059, 8 h, read-out: GI
Bacillus subtilis [22] = assay: Growth inhibition of Bacillus subtilis NCIM 2162 at 10 ug/ml measured after 12 hrs relative to control; conditions: NCIM 2162, 12 h, read-out: GI
Pseudomonas fluorescens [23] = assay: Growth inhibition of Pseudomonas fluorescens NCIM 2059 at 30 ug/ml measured after 8 hrs relative to control; conditions: NCIM 2059, 8 h, read-out: GI
[24] = test system: Mycobacterium tuberculosis; assay: Antitubercular activity against Mycobacterium bovis BCG ATCC 35743 dormant stage by nitrate reductase based two-fold dilution assay; conditions: BCG str. ATCC 35743

| SMILES | inhibition of growth at 10 µg/mL [1] [%] | MIC (Bacillus subtilis [2]) [µM] | inhibition of growth at 10 µg/mL (Escherichia coli [3]) [%] | inhibition of growth at 1 µg/mL (Bacillus subtilis [4]) [%] | MIC (Escherichia coli [5]) [µM] | inhibition of growth at 3 µg/mL [6] [%] | inhibition of growth at 1 µg/mL (Escherichia coli [7]) [%] | inhibition of growth at 30 µg/mL (Bacillus subtilis [8]) [%] | inhibition of growth at 1 µg/mL [9] [%] | inhibition of growth at 10 µg/mL (Pseudomonas fluorescens [10]) [%] | MIC (Pseudomonas fluorescens [11]) [µM] | inhibition of growth at 1 µg/mL (Staphylococcus aureus [12]) [%] | inhibition of growth at 10 µg/mL [13] [%] | inhibition of growth at 30 µg/mL (Staphylococcus aureus [14]) [%] | IC50 [15] [µM] | MIC90 [15] [µM] | inhibition of growth at 30 µg/mL (Escherichia coli [16]) [%] | MIC (Staphylococcus aureus [17]) [µM] | inhibition of growth at 30 µg/mL [18] [%] | inhibition of growth at 10 µg/mL (Staphylococcus aureus [19]) [%] | further results |
| --- | --- | --- | --- | --- | --- | --- | --- | --- | --- | --- | --- | --- | --- | --- | --- | --- | --- | --- | --- | --- | --- |
| Cc1nc(-c2ccccc2)oc1-c1csc(-c2ccc(Br)cc2)n1 | 36 | > 100 | 79.1 | 65 | > 100 | 11 | 67.7 | 88 | 31 | 74.2 | > 100 | 67.8 | 17 | 85.2 | > 100 | > 100 | 85.6 | > 100 | 33 | 72.2 | inhibition of growth at 30 µg/mL [20]: 39%; inhibition of growth at 1 µg/mL (Pseudomonas fluorescens [21]): 64.5%; inhibition of growth at 10 µg/mL (Bacillus subtilis [22]): 74.3%; inhibition of growth at 30 µg/mL (Pseudomonas fluorescens [23]): 85.2%; IC50 [24]: > 100 µM; MIC90 [24]: > 100 µM |
| Cc1nc(-c2ccccc2)oc1-c1csc(-c2ccc(F)c(Cl)c2)n1 | 33 | > 100 | 74.3 | 62 | > 100 | 19 | 65 | 85.6 | 16 | 77.1 | > 100 | 70.9 | 21 | 88.5 | > 100 | > 100 | 88 | > 100 | 30 | 80 | inhibition of growth at 30 µg/mL [20]: 34%; inhibition of growth at 1 µg/mL (Pseudomonas fluorescens [21]): 69.8%; inhibition of growth at 10 µg/mL (Bacillus subtilis [22]): 80.8%; inhibition of growth at 30 µg/mL (Pseudomonas fluorescens [23]): 89.6%; IC50 [24]: > 100 µM; MIC90 [24]: > 100 µM |
| Cc1ccc(-c2nc(-c3oc(-c4ccccc4)nc3C)cs2)cc1 | 34 | > 100 | 11.1 | 3.92 | > 100 | 13 | 7.19 | 33.4 | 25 | 18.6 | > 100 | 5.6 | 15 | 31.5 | > 100 | > 100 | 33.8 | > 100 | 17 | 14.9 | inhibition of growth at 30 µg/mL [20]: 34%; inhibition of growth at 1 µg/mL (Pseudomonas fluorescens [21]): 2.57%; inhibition of growth at 10 µg/mL (Bacillus subtilis [22]): 15.9%; inhibition of growth at 30 µg/mL (Pseudomonas fluorescens [23]): 30.8%; IC50 [24]: > 100 µM; MIC90 [24]: > 100 µM |
| Cc1nc(-c2ccccc2)oc1-c1csc(-c2ccc(Cl)cc2)n1 | 41 | > 100 | 25.3 | 14.9 | > 100 | 38 | 11.1 | 45.7 | 30 | 23.7 | > 100 | 12.8 | 45 | 48.9 | > 100 | > 100 | 48.9 | > 100 | 46 | 22.3 | inhibition of growth at 30 µg/mL [20]: 43%; inhibition of growth at 1 µg/mL (Pseudomonas fluorescens [21]): 10.5%; inhibition of growth at 10 µg/mL (Bacillus subtilis [22]): 29.2%; inhibition of growth at 30 µg/mL (Pseudomonas fluorescens [23]): 44.9%; IC50 [24]: > 100 µM; MIC90 [24]: > 100 µM |
| Cc1nc(-c2ccc(F)cc2)oc1-c1csc(-c2ccc(F)c(Cl)c2)n1 | 23 | > 100 | 55.9 | 41.2 | > 100 | 6 | 45.7 | 69.4 | 21 | 56.2 | > 100 | 45.7 | 11 | 63 | > 100 | > 100 | 64.2 | > 100 | 13 | 55.2 | inhibition of growth at 30 µg/mL [20]: 29%; inhibition of growth at 1 µg/mL (Pseudomonas fluorescens [21]): 44.3%; inhibition of growth at 10 µg/mL (Bacillus subtilis [22]): 55.6%; inhibition of growth at 30 µg/mL (Pseudomonas fluorescens [23]): 65.8%; IC50 [24]: > 100 µM; MIC90 [24]: > 100 µM |
| Cc1nc(-c2ccccc2)oc1-c1csc(-c2ccc(F)cc2)n1 | 16 | > 100 | 47.2 | 37.7 | > 100 | 8 | 38.4 | 60.6 | 11 | 45.1 | > 100 | 34.6 | 13 | 60.5 | > 100 | > 100 | 58.5 | > 100 | 13 | 41.7 | inhibition of growth at 30 µg/mL [20]: 27%; inhibition of growth at 1 µg/mL (Pseudomonas fluorescens [21]): 31.8%; inhibition of growth at 10 µg/mL (Bacillus subtilis [22]): 49.4%; inhibition of growth at 30 µg/mL (Pseudomonas fluorescens [23]): 61%; IC50 [24]: > 100 µM; MIC90 [24]: > 100 µM |
| Cc1nc(-c2ccc(F)cc2)oc1-c1csc(-c2ccc(Cl)cc2)n1 | 29 | > 100 | 10.4 | 4.2 | > 100 | 3 | 5.86 | 20.5 | 25 | 20.7 | > 100 | 8.6 | 4 | 25.8 | > 100 | > 100 | 24.9 | > 100 | 13 | 19.5 | inhibition of growth at 30 µg/mL [20]: 33%; inhibition of growth at 1 µg/mL (Pseudomonas fluorescens [21]): 0.52%; inhibition of growth at 10 µg/mL (Bacillus subtilis [22]): 12.9%; inhibition of growth at 30 µg/mL (Pseudomonas fluorescens [23]): 21.5%; IC50 [24]: > 100 µM; MIC90 [24]: > 100 µM |
| Cc1nc(-c2ccc(F)cc2)oc1-c1csc(-c2cccc(Cl)c2)n1 | 24 | > 100 | 40.5 | 28.8 | > 100 | 29 | 23.4 | 50.8 | 23 | 38.3 | > 100 | 28.5 | 29 | 48.1 | > 100 | > 100 | 49.5 | > 100 | 32 | 35.7 | inhibition of growth at 30 µg/mL [20]: 32%; inhibition of growth at 1 µg/mL (Pseudomonas fluorescens [21]): 24.8%; inhibition of growth at 10 µg/mL (Bacillus subtilis [22]): 40.6%; inhibition of growth at 30 µg/mL (Pseudomonas fluorescens [23]): 48.3%; IC50 [24]: > 100 µM; MIC90 [24]: > 100 µM |
| Cc1nc(-c2ccc(F)cc2)oc1-c1csc(-c2ccc(Br)cc2)n1 | 36 | > 100 | 60.7 | 46.5 | > 100 | 43 | 48.9 | 68.2 | 28 | 54.2 | > 100 | 44.1 | 45 | 67.8 | > 100 | > 100 | 69 | > 100 | 54 | 56.6 | inhibition of growth at 30 µg/mL [20]: 42%; inhibition of growth at 1 µg/mL (Pseudomonas fluorescens [21]): 48.6%; inhibition of growth at 10 µg/mL (Bacillus subtilis [22]): 51.8%; inhibition of growth at 30 µg/mL (Pseudomonas fluorescens [23]): 68.3%; IC50 [24]: > 100 µM; MIC90 [24]: > 100 µM |
